Several values for one entry are separate records, joined by “and”; a condition that tells them apart may be missing. Equal entries are not always repeated. Entries after “also recorded” stand apart in the source; their conditions may differ.
Assays:
[1] = test system: hSOD1^G93A-expressing astrocytes; experiment: single-cell Fluo4 [Ca^2+]i imaging in hSOD1^G93A-expressing astrocytes; type: cell-based, mouse
Procedure: (§1) Astrocytes cultures. Primary astrocyte cultures (>99% GFAP-positive) were prepared from the spinal cord of newborn mice (hSOD1^G93A or wild-type littermates). Once the cultures reached the confluence, they were replated at the optimal density either in 24-well plates or 35-mm Petri dishes containing glass coverslips and maintained in Minimal Essential Medium (MEM, GIBCO) supplemented with 10% foetal bovine serum (FBS, Sigma-Aldrich).
(§2) [Ca^2+]i imaging. ASTROCYTES were plated (2.5×10^4 cells/35 mm Petri dish) on glass coverslips and used 2-3 days later as already shown. Before imaging, cells were loaded with 5 μM Fluo4-AM (Molecular Probes) for 15-20 min. at 37° C. in a HEPES-KRH buffer containing (in mM): NaCl 116, KCl 4, MgCl2 1, CaCl2 1.8, HEPES-acid 10, glucose 25 (pH 7.4) and then allowed to de-esterify for 10 min. After several washes, coverslips were mounted in an open perfusion micro-incubator (PDMI-2, Harvard Apparatus) set at 37° C. on the stage of the optical recording microscope. During experiments, cells were continuously perfused with HEPES-KRH (1 ml/min), and 100 μM DHPG was applied via a software-controlled micro-perfusion fast-step device (100 μl/min, Warner Instrument Corp.) A Zeiss Axiovert 200 inverted fluorescence microscope was modified to allow EPI illumination (Visitron Systems). Fluo4 fluorescence was recorded through a 63× or 40× objectives lens (Zeiss, Neofluar 63×/1.25 Oil, Neofluar 40×/1.3 Oil) and directed through a Zeiss filter set 10 (BP 450-490; BP 515-565) at 200- or 400 ms of intervals by imaging with excitation light at 488 nm generated by a polychromator illumination system (Visichrome, Visitron). Video images, digitized with MetaFluor, were analyzed with MetaMorph software (Universal Imaging). Temporal dynamics of Fluo4 fluorescence have been expressed as background-subtracted ΔF/F0(%), where F0 represents the fluorescence level of the cells before stimulation, and F represents the change in fluorescence occurring during the stimulus.
(§3) [Ca^2+]i imaging. The measurements of [Ca^2+]i were performed as described in Example 2. Briefly, cells were loaded with 5 μM Fluo4-AM and then allowed to de-esterify for 10 min.
(§4) After several washes, coverslips were mounted in an open perfusion micro-incubator set at 37° C. on the stage of the optical recording microscope. During experiments, cells were continuously perfused with HEPES-KRH (1 ml/min), and 0.5 μM TAT-BH4 was applied 30 min. before adding 100 μM DHPG via a software-controlled micro-perfusion fast-step device (100 μl/min, Warner Instrument Corp.).

[2] = test system: hSOD1^G93A-expressing astrocytes; experiment: astrocyte toxicity assay, DHPG challenge (nuclear condensation, active caspase-3); type: cell-based, mouse
Procedure: (§5) Pharmacological treatments in vitro. To assess the ability of TAT-BH4 to penetrate into cells, astrocytes (8×10^4 cells/well) were plated in 24-well plates containing glass coverslips. Cultures were treated with 10 μg/ml Hoechst 33342 (Sigma) for 15 min., quickly washed and incubated with 0.5 μM TAT-BH4 (TAT^48-57 conjugated to the BH4 domain of Bcl-XL) either unconjugated or conjugated with 5(6)-carboxyfluorescein (FAM, Primm srl) for 30 min. Peptides in excess were subsequently removed, cells were washed and immediately fixed (methanol:acetone 1:1 for 10 min.) or maintained in culture for 24 hrs and then fixed. The presence of the peptides inside the cells was evaluated by a digital camera (DFC 310 FX, Leica Microsystem) mounted on a DM5000 B microscope (Leica Microsystem) and analysed by Leica Application Suite 3.5.0 software. […]
(§6) Astrocyte toxicity assays. The toxic effect of DHPG or staurosporine on cultured astrocytes was determined by double staining with the fluorescent nuclear dye Hoechst 33342 and anti-active caspase-3 immunocytochemistry using a rabbit polyclonal antibody (1:50, Cell Signalling Technology). The number of astrocytes showing condensed nuclei and activated caspase-3 24 hrs after the pharmacological challenge was counted by two independent operators in a blind manner. […]

[3] = test system: hSOD1^G93A-expressing astrocytes; experiment: cytochrome c release (co-localization of Cyt c with SOD2); type: cell-based, mouse; details: DHPG 100 μM
Procedure: Pharmacological treatments in vitro. To assess the ability of TAT-BH4 to penetrate into cells, astrocytes (8×10^4 cells/well) were plated in 24-well plates containing glass coverslips. Cultures were treated with 10 μg/ml Hoechst 33342 (Sigma) for 15 min., quickly washed and incubated with 0.5 μM TAT-BH4 (TAT^48-57 conjugated to the BH4 domain of Bcl-XL) either unconjugated or conjugated with 5(6)-carboxyfluorescein (FAM, Primm srl) for 30 min. Peptides in excess were subsequently removed, cells were washed and immediately fixed (methanol:acetone 1:1 for 10 min.) or maintained in culture for 24 hrs and then fixed. The presence of the peptides inside the cells was evaluated by a digital camera (DFC 310 FX, Leica Microsystem) mounted on a DM5000 B microscope (Leica Microsystem) and analysed by Leica Application Suite 3.5.0 software. To test the protective efficacy of TAT-BH4, astrocytes in culture were pre-exposed to different concentrations of the peptide (0.1 and/or 0.5 μM, 30 min.), washed and then treated with DHPG (100 μM, 30 min., Tocris Cookson Ltd.) or staurosporine (1 μM, 6 hrs, Sigma-Aldrich). After removal of DHPG, astrocytes were allowed to recover at 37° C. for 24 hrs.
Cytochrome c release. […] Cytochrome c release from mitochondria was determined by its co-localization with the mitochondrial protein SOD2 using JACoP plug-in ImageJ. […]

wild-type astrocytes = experiment: single-cell Fluo4 [Ca^2+]i imaging in wild-type astrocytes; type: cell-based, mouse
Procedure: as §1, §2, §3, §4

astrocyte cultures = experiment: astrocyte toxicity assay, staurosporine challenge (nuclear condensation); type: cell-based, mouse
Procedure: as §5, §6

hSOD1^G93A mice [4] = experiment: histopathological analysis of spinal cord of treated hSOD1^G93A mice; type: in vivo, mouse; details: 5 mg/kg i.p. daily
Source text: Tissue preparation and immunohistological analysis. For mouse tissue preparation, the spine was taken and immersed in 4% buffered paraformaldehyde for 24 hrs; spinal cord was extracted, the lumbar tract was removed and either paraffin embedded or cryoprotected in 30% sucrose before freezing. For human tissue preparation, spinal cord was removed and 0.5 cm thick slices were taken from the cervical (C7), thoracic (T4 and T8) and lumbar (L1) levels. Slices were fixed in 10% buffered formalin and embedded in paraffin. Mouse or human spinal cords were sectioned at 5-10 μm and used to perform different immunostainings. On selected sections, the following primary antibodies were used: GFAP (mouse monoclonal antibody, 1:50, Dako), CD11b (rat monoclonal antibody, 1:500, Serotec), mGluR5 (rabbit polyclonal antibody, 1:100, MBL International Corporation); active caspase-3 (rabbit polyclonal antibody, 1:50, Cell Signalling Technology). For active caspase-3 immunostaining, a Tyramide Amplification System kit was used (Perkin Elmer, Inc.). For histopathological analysis, serial sections were either immunostained for GFAP/active caspase-3 or treated with 0.5% cresyl violet (Sigma Aldrich) to detect motor neuron Nissl substance. GFAP/active caspase-3 positive astrocytes and motor neurons were counted for a total of 9 disectors using an unbiased stereologic physical disector technique. Z-axis image stacks (z-step size: 0.5 μm) were collected to generate three-dimensional data sets of spinal cord sections on an MRC 1024 Bio-Rad confocal microscope with a 63× Plan Neofluar NA1,25 oil-immersion objective in condition of optimal iris diameter as defined by LaserSharp 2000 software. Quantitative analysis of punctuate mGluR5, GFAP or CD11 b stainings was performed on confocal acquired images (1024×1024 pixels) of the spinal cord ventral horns from both wild-type and SOD1^G93A animals using ImageJ software (National Institutes of Health). After establishing an intensity threshold, the software calculated the percentage of area occupied by mGluR5, GFAP or CD11b staining by dividing the area of immunopositivity by the total area.
(§7) Pharmacological treatment in vivo. hSOD1^G93A mice were administrated daily 5 mg/kg TAT-BH4 peptide in PBS containing 10% glycerol or vehicle alone (PBS plus 10% glycerol) intraperitoneally starting at the age of 40 days (n=14 mice for each condition). Mice were thereafter kept under daily observation and weighted twice a week. Age of disease onset was retrospectively determined as the time when mice reached the peak in the body weight. Motor performance was assessed twice a week by rotarod test starting at the age of 50 days. Briefly, animals were place on an accelerating rod (Ugo Basile) and the time each mouse remained on the rod was recorded. The average of three independent trials per session was used for further analysis of the data. End stage was defined as the time in which animals were unable to right themselves within 30 seconds when placed on their side.

hSOD1^G93A mice [5] = experiment: chronic treatment of hSOD1^G93A mice: disease onset, rotarod, survival; type: in vivo, mouse; details: 5 mg/kg i.p. daily from age 40 days
Procedure: Transgenic mice. Transgenic mice expressing human SOD1^G93A (B6SJL-TgN(SOD1-G93A)1Gur were purchased from The Jackson Laboratories. The colonies were maintained by breeding hemizygote males to wild-type C57BI6/SJL F1 hybrid females. Offspring were genotyped and used for subsequent studies. Animal procedures were approved by the Italian Ministry of Health.
as §7
Statistics. Data are represented as mean±s.e.m. and statistical significance is verified using GraphPad Prism software. Unpaired or paired 2-tailed t-test was used for comparisons between two groups; one-way or two-way analysis of variance (ANOVA) followed by Bonferroni post-hoc test was used for comparisons of multiple groups; repeated measures two-way ANOVA was used for behavioral test; the Logrank test was used for disease onset and survival analysis.

[6] = TAT-BH4 0.5 μM 30 min before DHPG 100 μM
[7] = TAT-BH4 0.5 μM 30 min before STS 1 μM

NC(C(=O)O)c1cc(O)cc(O)c1 (racemic) [DHPG, (RS)-3,5-dihydroxyphenylglycine, reference compound]
change of initial [Ca^2+]i transient (ΔF/F0) with respect to wild-type cells ([1]; DHPG 100 μM): −63%
peak amplitude of initial DHPG-evoked [Ca^2+]i transient ([1]; DHPG 100 μM): 0.1±0.08 ΔF/F0
time to plateau of long-lasting [Ca^2+]i rise ([1]; DHPG 100 μM): about 10 min
percentage of astrocytes with nuclear condensation and caspase-3 activation, effect of DHPG ([2]; DHPG 100 μM, compared with wild-type cells): induces an increment
mitochondria and cytochrome c, effect of DHPG [3]: causes mitochondrial disarrangement and release of cytochrome c
average [Ca^2+]i oscillation frequency (wild-type astrocytes; DHPG 100 μM): 17±2.5 mHz
peak amplitude of initial DHPG-evoked [Ca^2+]i transient (wild-type astrocytes; DHPG 100 μM): 0.27±0.18 ΔF/F0

CN[C@@H]1C[C@H]2O[C@@](C)([C@@H]1OC)n1c3ccccc3c3c4c(c5c6ccccc6n2c5c31)C(=O)NC4 [STS, staurosporine, reference compound]
percentage of cells with nuclear condensation, effect of STS (astrocyte cultures; STS 1 μM, 6 h): caused an increment in the percentage of cells with nuclear condensation
amplitude of [Ca^2+]i plateau (wild-type astrocytes; STS 1 μM): 3.52±0.22 ΔF/F0
time to plateau of long-lasting calcium rise (wild-type astrocytes; STS 1 μM): 75 to 80 min

H2N-GRKKRRQRRRGGSNRELVVDFLSYKLSQKGYS-COOH (H-GRKKRRQRRRGGSNRELVVDFLSYKLSQKGYS-OH) [TAT-BH4, BH4 domain of Bcl-XL fused via GG to the protein transduction domain of the HIV TAT protein]
average [Ca^2+]i oscillation frequency after DHPG [1, 6]: 14±3.1 mHz
percentage of cells in which DHPG evokes a single [Ca^2+]i transient followed by sustained [Ca^2+]i oscillations (pattern as in wild-type) [1, 6]: 100% and 99%
[Ca^2+]i response to local application of the peptide alone ([1]; TAT-BH4 0.5 μM, 30 min): immediate [Ca^2+]i rise followed by sustained [Ca^2+]i oscillations
cells with nuclear condensation (apoptotic cells) after STS, effect of peptide (astrocyte cultures; TAT-BH4 0.1 or 0.5 μM 30 min pre-incubation, STS 1 μM 6 h): reduced the number of apoptotic cells in a dose-dependent manner; also recorded: potently inhibited in a dose-dependent fashion
CD11b-immunopositive microglial cells (hSOD1^G93A mice [4]; n=18 fields from three mice): 1040.7±20.4 cells/mm^2
GFAP-positive astrocytes in spinal ventral horns (hSOD1^G93A mice [4]; n=18 fields from three mice): 917.9±33.1 cells/mm^2
change in number of spheroid astrocytes immunopositive for active caspase-3, with respect to saline-treated mice (hSOD1^G93A mice [4]; 100 day-old mice): −74%
number of caspase-3-positive cells compared to saline (hSOD1^G93A mice [4]; 100 day-old mice): significantly lower
number of motor neurons in spinal cord (hSOD1^G93A mice [4]; 100 day-old mice): preservation of a greater number of motor neurons
extension of life span (hSOD1^G93A mice [5]): 15 days
rotarod motor performance compared to saline-treated animals (hSOD1^G93A mice [5]): significantly improves motor performance; also recorded: performed significantly better
age at disease onset (peak body weight) (hSOD1^G93A mice [5]; n=14): 107.5 ± 1.8 days
survival time (hSOD1^G93A mice [5]; n=14): 138 ± 2.1 days
delay of onset of symptoms compared to controls (hSOD1^G93A mice [5]; onset = peak body weight): 8 days
percentage of astrocytes with nuclear condensation and caspase-3 activation after DHPG, effect of peptide ([2]; TAT-BH4 0.5 μM 30 min pre-treatment, DHPG 100 μM 30 min, 24 hrs recovery): significantly reduced; also recorded: significant reduction
release of cytochrome c / co-localization of Cyt c and SOD2 after DHPG, effect of peptide ([3]; TAT-BH4 0.5 μM 30 min pre-treatment): restores the complete co-localization of the two proteins; also recorded: significant reduction
change of persistent [Ca^2+]i rise evoked by STS, with respect to STS alone (wild-type astrocytes; [7]): −72%
effect on [Ca^2+]i oscillations in STS-treated cells (wild-type astrocytes; [7]): restored [Ca^2+]i oscillations; also recorded: re-establishment of [Ca^2+]i oscillations
[Ca^2+]i response to local application of the peptide alone (wild-type astrocytes; TAT-BH4 0.5 μM, 30 min): immediate [Ca^2+]i rise followed by sustained [Ca^2+]i oscillations

From patent US8778884B2, “Glioprotectant peptide for use in the treatment of amyotrophic lateral sclerosis (ALS) and methods related thereto” (Fondazione Salvatore Maugeri Clinica del Lavora e Della …, priority 2011, dated 2014)
